Values joined by “and” are separate entries in the source; they are usually repeats but may differ in a detail not shown here. Equal values may be shown once.

Assay [1] concerns the target T1, Interstitial collagenase (Homo sapiens, UniProt P03956).
T1 sequence (P03956 whole entry): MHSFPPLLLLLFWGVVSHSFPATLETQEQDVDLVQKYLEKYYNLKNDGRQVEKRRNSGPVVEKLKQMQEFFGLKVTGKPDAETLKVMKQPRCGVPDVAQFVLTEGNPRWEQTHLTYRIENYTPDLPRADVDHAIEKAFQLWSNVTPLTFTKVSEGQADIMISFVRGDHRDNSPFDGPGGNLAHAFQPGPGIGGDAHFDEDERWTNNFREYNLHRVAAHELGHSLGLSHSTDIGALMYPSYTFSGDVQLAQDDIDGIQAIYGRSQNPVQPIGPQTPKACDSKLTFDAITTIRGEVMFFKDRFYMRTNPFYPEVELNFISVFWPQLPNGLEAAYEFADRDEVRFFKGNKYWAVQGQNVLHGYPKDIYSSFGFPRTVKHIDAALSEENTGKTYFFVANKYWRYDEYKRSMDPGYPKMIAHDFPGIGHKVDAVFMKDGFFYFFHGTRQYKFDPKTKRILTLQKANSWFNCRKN
As to the kind of experiment: In vitro inhibition of Matrix metalloprotease-1.

Assay [2] addresses T2, Collagenase 3 (Homo sapiens, UniProt P45452). Put plainly: In vitro inhibition of Matrix metalloprotease-13.
The target in assay [3] is Matrix metalloproteinase-9 (Homo sapiens, UniProt P14780). As to the kind of experiment: In vitro inhibition of Matrix metalloprotease-9.
For assay [4], the target named is T1, Interstitial collagenase. Put plainly: Inhibition of Matrix metalloprotease-1.
Assay [5] addresses T2, Collagenase 3.
Description: Inhibition of Matrix metalloprotease-13
In assay [6] the target is T3, Disintegrin and metalloproteinase domain-containing protein 17 (Homo sapiens, UniProt P78536). As to the kind of experiment: Inhibition of TNFalpha converting enzyme, TACE.
Assay [7] deals with T3, Disintegrin and metalloproteinase domain-containing protein 17. As to the kind of experiment: In vitro inhibition of TNF-alpha converting enzyme.

T3 sequence (P78536 whole entry, the tested form may be a part): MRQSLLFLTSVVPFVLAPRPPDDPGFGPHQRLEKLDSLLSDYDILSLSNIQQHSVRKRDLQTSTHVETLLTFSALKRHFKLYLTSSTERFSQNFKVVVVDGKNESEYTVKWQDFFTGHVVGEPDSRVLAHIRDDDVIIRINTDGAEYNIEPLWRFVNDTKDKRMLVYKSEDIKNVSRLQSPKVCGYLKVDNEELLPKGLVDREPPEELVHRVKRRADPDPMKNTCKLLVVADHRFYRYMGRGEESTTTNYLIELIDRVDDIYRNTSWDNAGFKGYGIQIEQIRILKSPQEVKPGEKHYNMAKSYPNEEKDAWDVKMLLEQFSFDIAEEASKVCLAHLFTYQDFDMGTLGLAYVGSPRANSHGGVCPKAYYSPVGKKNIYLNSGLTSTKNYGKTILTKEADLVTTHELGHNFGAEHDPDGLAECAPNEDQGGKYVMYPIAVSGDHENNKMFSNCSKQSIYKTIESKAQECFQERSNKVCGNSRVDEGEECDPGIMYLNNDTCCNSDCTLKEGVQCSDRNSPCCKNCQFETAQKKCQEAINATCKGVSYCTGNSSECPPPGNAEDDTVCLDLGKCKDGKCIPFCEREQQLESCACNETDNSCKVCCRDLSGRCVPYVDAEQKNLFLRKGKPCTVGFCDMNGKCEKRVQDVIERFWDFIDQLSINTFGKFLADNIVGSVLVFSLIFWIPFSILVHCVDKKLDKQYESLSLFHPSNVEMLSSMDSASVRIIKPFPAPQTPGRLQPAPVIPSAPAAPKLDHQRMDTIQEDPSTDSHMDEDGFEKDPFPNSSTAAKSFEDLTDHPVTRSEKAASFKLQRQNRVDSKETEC
Chain of Matrix metalloproteinase-9 (P14780 whole entry): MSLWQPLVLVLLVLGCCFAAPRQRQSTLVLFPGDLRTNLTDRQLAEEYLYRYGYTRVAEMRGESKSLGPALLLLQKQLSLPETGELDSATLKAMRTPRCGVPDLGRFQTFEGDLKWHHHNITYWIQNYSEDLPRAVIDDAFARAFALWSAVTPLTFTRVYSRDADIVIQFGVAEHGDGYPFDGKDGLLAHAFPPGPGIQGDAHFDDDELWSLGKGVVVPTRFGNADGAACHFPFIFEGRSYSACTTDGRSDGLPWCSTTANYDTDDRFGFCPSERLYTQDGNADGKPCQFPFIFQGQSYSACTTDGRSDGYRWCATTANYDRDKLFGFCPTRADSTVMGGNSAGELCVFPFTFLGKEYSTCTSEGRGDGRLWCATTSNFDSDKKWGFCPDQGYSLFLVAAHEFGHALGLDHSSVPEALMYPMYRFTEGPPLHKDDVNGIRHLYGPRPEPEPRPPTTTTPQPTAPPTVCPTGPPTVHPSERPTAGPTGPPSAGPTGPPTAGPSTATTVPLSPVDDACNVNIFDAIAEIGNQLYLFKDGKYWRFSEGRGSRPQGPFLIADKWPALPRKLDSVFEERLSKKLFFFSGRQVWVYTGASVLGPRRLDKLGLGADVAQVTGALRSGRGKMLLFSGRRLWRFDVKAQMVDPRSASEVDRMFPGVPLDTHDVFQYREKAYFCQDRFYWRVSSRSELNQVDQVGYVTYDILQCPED

By IC50 is commonly meant the concentration that gives 50% inhibition. Read a high IC50 as lower potency. For the compound `CCN(CC)Cc1cccc(C(=O)NO)c1N(C)S(=O)(=O)c1ccc(OC)cc1`, the IC50 in assay [1] was 744 nM; in assay [2], 84 nM; in assay [3] it was 8 nM.

Turning to `CN1CCN(Cc2cc(Br)cc(C(=O)NO)c2N(C)S(=O)(=O)c2ccc(Oc3ccc(Cl)cc3)cc2)CC1`, the IC50 in assay [4] stood at 82 nM; in assay [5], 0.7 nM; in assay [6], 80 nM; in assay [3], 0.5 nM.

In assay [3], `COc1ccc(S(=O)(=O)N(Cc2ccc(CN(C)C)cc2)c2c(C)cccc2C(=O)NO)cc1` yielded an IC50 of 3 nM.

For the compound `COc1ccc(S(=O)(=O)N(C)c2c(CN3CCN(C)CC3)cccc2C(=O)NO)cc1`, the IC50 in assay [3] amounted to 1 nM. Compared with the last compound, the IC50 is about 3-fold lower.

For `COc1ccc(S(=O)(=O)N(C)c2c(CN3CCN(C)CC3)cc(Br)cc2C(=O)NO)cc1`, the figures for the IC50 in assay [1] and in assay [3] were 194 nM and 2 nM, respectively.

Take `COC(=O)C1CCCN1Cc1cccc(C(=O)NO)c1N(C)S(=O)(=O)c1ccc(OC)cc1` (stereo not drawn): the IC50 in assay [1] was determined as 517 nM; in assay [7], 200 nM; in assay [2], 6 nM; in assay [3], 5 nM.

Take `COc1ccc(S(=O)(=O)N(Cc2ccc(OCCN3CCCCC3)cc2)c2c(C)cc(Br)cc2C(=O)NO)cc1`: the IC50 in assay [2] is 3 nM; in assay [3], 2 nM.

`COc1ccc(S(=O)(=O)N(Cc2ccc(OCCN3CCCCC3)cc2)c2c(C)cccc2C(=O)NO)cc1` had an IC50 in assay [3] of 7 nM. This counts as single-digit nanomolar.

As for `CN1CCN(Cc2cccc(C(=O)NO)c2N(C)S(=O)(=O)c2ccc(Oc3ccc(Cl)cc3)cc2)CC1`, the IC50 in assay [1] turned out to be 155 nM; in assay [7], 122 nM; in assay [2] it was 0.8 nM; in assay [3], 1 nM.

For `COc1ccc(S(=O)(=O)N(Cc2cccnc2)c2c(C)cccc2C(=O)NO)cc1`, the IC50 in assay [1] was 329 nM and 391 nM; in assay [7], 356 nM and 645 nM.

Take `COc1ccc(S(=O)(=O)N(Cc2ccc(N3CCN(C)CC3)cc2)c2c(C)cccc2C(=O)NO)cc1`: in assay [3], half-maximal inhibition (IC50) required 7 nM.

On to `COc1ccc(S(=O)(=O)N(C)c2c(CN3CCN(C)CC3)cc(-c3ccc4ccccc4c3)cc2C(=O)NO)cc1`, for which the IC50 came out at 343 nM in assay [1], 49 nM in assay [7], 3 nM in assay [2] and 2 nM in assay [3].

As to `COc1ccc(S(=O)(=O)N(C)c2c(CN3CCN(C)CC3)cc(-c3ccc(OC(F)(F)F)cc3)cc2C(=O)NO)cc1`, the IC50 in assay [1] was determined as 745 nM; in assay [7], 210 nM; in assay [2] it was 4 nM; in assay [3], 2 nM.

As for `CCN(CC)CC#CCN(c1c(C)cc(Br)cc1C(=O)NO)S(=O)(=O)c1ccc(OC)cc1`, the IC50 in assay [1] stood at 150 nM; in assay [7] it was 36 nM; in assay [2], 7 nM; in assay [3] it was 14 nM.

As for `COc1ccc(S(=O)(=O)N(CC#CCN2CCN(C)CC2)c2c(C)cc(Br)cc2C(=O)NO)cc1`, the IC50 in assay [7] amounted to 26 nM; in assay [2], 6 nM; in assay [3], 10 nM.

`COc1ccc(S(=O)(=O)N(C)c2c(CN3CCN(c4ccccc4)CC3)cc(Br)cc2C(=O)NO)cc1`: the IC50 in assay [1] amounted to 444 nM; in assay [7] it was 87 nM; in assay [2] it was 3 nM; in assay [3], 3 nM.

On to `COc1ccc(S(=O)(=O)N(C)c2c(CN3CCN(C(=O)OC(C)(C)C)CC3)cc(Br)cc2C(=O)NO)cc1`, for which the IC50 was found to be 674 nM in assay [1], 63 nM in assay [7], 6 nM in assay [2] and 7 nM in assay [3].
